In patent publication US10775391B2, “Nervous system-specific transmembrane proteasome complex that modulates neuronal signaling through extracellular signaling via brain activity peptides” (THE JOHNS HOPKINS UNIVERSITY, priority 2015, dated 2020):
Where a SMILES comes first, the peptide text is derived from it. The star is where a group is joined. Cbz = O=C(OCc1ccccc1)*

Tests used:
[1] = tested on: GCaMP3-transfected cultured cortical neurons; assay: Calcium imaging of bicuculline-stimulated GCaMP3-transfected cortical neurons; assay type: cell-based, mouse; settings: for amplitude of bicuculline-induced calcium transients: 1 μM bicuculline, biotin-epoxomicin 25 μM co-administered
Experimental: Bicuculline treatment was administered as a 1 μM stimulation in calcium imaging buffer in a perfusion setup. […] Each treatment was monitored for three minutes prior to washout. […] Cells were ensured to be healthy at the end of the imaging process by stimulating with 55 mM KCl and washing out and assessing for a proper calcium signal. Quantification was done by picking multiple regions of interests in primary and secondary dendrites across multiple coverslips over different imaging days. Data was analyzed using the Time Series Analyzer V3.0 ImageJ plugin and the ROI manager. Data were pooled for all the ROIs to generate a single N value. Brains from P0-P3 mouse pups (Cre GCaMP3; Nestin-Cre ER) were dissected and plated in Neurobasal-A with B-27 supplement for two weeks. At DIV7, 4-hydroxytamoxifen (4-HT, concentration) was added to induce GCaMP expression. Neurons were imaged in a calcium-imaging buffer (130 mM NaCl, 3 mM KCl, 2.5 mM CaCl2, 0.6 mM MgCl2, 10 mM Hepes, 10 mM glucose, 1.2 mM NaHCO3 pH 7.45). Peptides were collected, filtered, and dialyzed and then lyophilized prior to resuspension in 1 mL of MilliQ water and addition onto GCaMP-encoding neurons. […] Peptides treated with Proteinase K were spun through a 10 kDa MW cutoff filter prior to addition onto neurons in order to remove Proteinase K. Random peptide mixtures contained HIV-TAT, a polybasic peptide mixture, or a crude peptide prep.

[2] = biological target: T1, Neuronal Membrane Proteasome (NMP) (Mus musculus, UniProt O55234+P70195+Q60692); assay: Release of 35S-radiolabeled peptides (SNAPPs) from cortical neurons into media, liquid scintillation; assay type: cell-based; settings: baseline spontaneous activity
T1 construct: we believe that the endogenous NMP is catalytically active; endogenous in cells; host or cells: primary cultured cortical neurons from C57Bl/6 mouse embryos
Experimental: Cortical neurons were cultured for 12-18 days in vitro. Neurons were membrane depolarized with 55 mM extracellular KCl by addition of prewarmed depolarization buffer (55 mM KCl, 0.2 mM CaCl2, 1 mM MgCl2, 10 mM HEPES pH7.5) or a mock buffer (55 mM NaCl, final) in fresh neuronal growth media as previously described (Nature 455: 1198-1204 (2008)). Labeling was done in Neurobasal growth media with B27 supplement and without methionine or cysteine (Life Technologies, special order). ^35S methionine-cysteine (EasyTag PerkinElmer) was incorporated at 55 mCi in the cys/met free growth medium. Where indicated, MG132 (25 mM, Cell Signaling) and ATPγS (1 mM, Sigma) was added during the radioactive labeling window, 15 minutes prior to stimulation and was kept in for the duration of the stimulation.
For any chase experiment, free radioactivity was washed out with phosphate-buffered saline and replaced with fresh neuronal growth medium. […]
Quantification of SNAPPs was done by quantifying the amount of radioactivity in each sample by liquid scintillation (Wallac 1410). […]

NMP [3] = biological target: T2, NMP (Mus musculus, UniProt O55234+P70195+Q60692); assay: Catalytic activity of purified NMP with fluorescent substrate SUC-LLVY-AMC; assay type: biochemical; settings: low concentration (0.05% final), purified NMP in vitro
T2 construct: we purified NMPs from neuronal plasma membranes using a 20S purification matrix; endogenous in cells; host or cells: cultured neurons; detergent-extracted plasma membranes, isolated with the 20S proteasome purification kit (Enzo Life Sciences), assayed on beads
Experimental: In some embodiments, proteasome purification was performed as follows. Cells were treated and then immediately put on ice before purifications were performed as previously described (Methods Mol Biol 832, 423-432, 2012). Briefly, proteasomes were purified out of neuronal cytosol and detergent-extracted neuronal plasma membranes using the 20S proteasome purification kit (Enzo Life Sciences) or the 26S proteasome purification kit (UBPBio). For western blots, samples were denatured at 65° C. for 5 minutes in SDS sample buffer, resolved by SDS PAGE, transferred to nitrocellulose, and immunoblotted. For catalytic activity assays, ⅙th of the bead volume following proteasome purification was resuspended in activity assay buffer (20 mM Tris-HCl, pH8.0, 5 mM ATP, 5 mM MgCl2, 1 mM DTT). 26S proteasomal activity was assessed by the addition of 10 μM of SUC-LLVY-AMC (Enzo Life Sciences). The contribution of 20S proteasomal activity was assessed by the comparison of 26S proteasome activity to that of total proteasome activity (26S+20S), measured by the activity of samples containing SDS at a final concentration of 0.05%.

NMP [4] = assay: NMP expression by surface biotinylation, streptavidin pulldown and western blot in treated cortical neurons; assay type: cell-based; settings: DIV12 mouse neurons, 1 μM for 12 hours
Experimental: Surface biotin-labeling was performed as previously described (Nat Neurosci 12, 879-887 2009). Whole mouse brains, cultured cells or whole animal tissue were obtained where indicated and each sample was labeled using Sulfo-NHS-LC-Biotin (ThermoFisher). Cultured cells were washed in pH 8.0 PBS (Gibco) with 1 mM CaCl2 and 2 mM MgCl2 (PBSCM) and treated with 1 mg/mL Sulfo-NHS-LC-Biotin dissolved in PBSCM for 20 minutes at 4° C. before the reaction was quenched for 10 minutes in 50 mM glycine in PBSCM. Intact tissue was quickly and manually chopped, following biotinylation for only 10 minutes at 4° C. in 0.5 mg/mL Sulfo-NHS-LC-Biotin prior to quenching the reaction.
Primary, human central nervous system (CNS) tissue, gestational weeks 19-21, were obtained under surgical written consent following protocols approved by the Johns Hopkins Institutional Review Board, based on its designation as biological waste. Tissue was mechanically chopped at 4° C., and immediately processed for surface biotinylation. For streptavidin pulldown experiments lysed cells were incubated with high capacity streptavidin agarose beads overnight and then washed thrice with RIPA buffer before resuspension in SDS sample buffer.
For western blots, samples were boiled for 5 minutes in SDS sample buffer, resolved by SDS PAGE, transferred to nitrocellulose, and immunoblotted. […]

`CC(C)C[C@@H](C=O)NC(=O)[C@H](CC(C)C)NC(=O)[C@H](CC(C)C)NC(=O)OCc1ccccc1` [MG-132] (Cbz-Leu-Leu-Leu-aldehyde) was tested, and the “amplitude of bicuculline-induced calcium transients” value [1] was “similar”, the “neuronal activity-induced calcium signaling” value ([1]; acute addition onto neurons, within seconds) was “suppressed” and the “peptide release under non-stimulating conditions” value [2] was “inhibited”.

With `CCCCCCCCCCCCOS(=O)(=O)[O-].[Na+]` [SDS, sodium-dodecyl-sulfate] the “catalytic activity of the NMP” value (NMP [3]) was “potently stimulated”.

For “Aβ1-42: Aβ1-42 peptide used to treat mouse cortical neurons as an Alzheimer's disease model”, the “expression of proteasome subunits in the streptavidin pulldown (NMP expression)” value (NMP [4]) was “significant decrease”.

In the case of biotin-epoxomicin, the “amplitude of bicuculline-induced calcium transients” value [1] is reported as “strongly and rapidly attenuated”.
